Like-named read-outs stand apart in the source and are kept apart here.
Tests used:
[1] = cited from earlier work
[2] = tested on: CDFF-fed mice; assay: Chronic CDFF diet fibrosing NASH mouse model (8 weeks); format: in vivo, C57Bl/6J mice; settings: Elafibranor 3 mg/kg/day, CVC 10 mg/kg/day or both
Description: The preventive effects of Elafibranor alone, CVC alone and their combination were assessed in a fibrosing NASH model of mice fed a CDAA+2% cholesterol+30% Milk fat diet and High Fructose Corn Syrup 55 (55% fructose/45% glucose for a final concentration of 42 g/L) in drinking water (Mells et al J Nutr Biochem 2015). 5-6 weeks old male C57Bl/6J mice were fed a control (CSAA) diet (n=4), CDFF diet (n=12), or CDFF diet supplemented with Elafibranor 3 mg/kg/day, CVC 10 mg/kg/day or combined drugs (Elafibranor 3 mg/kg/day combined to CVC 10 mg/kg/day) (n=8 per group) for 8 weeks.
The body weight, the food and water intake were monitored twice per week. On the last day of treatment, plasma samples were obtained from retro-orbital blood sampling and mice were sacrificed after a 6 h-fasting period. The liver was rapidly excised for biochemical and histological analyses. All animal procedures were performed according to standard protocols and in accordance with the standard recommendations for the proper care and use of laboratory animals.
A technician blinded to the source of each liver specimen performed histological examinations. Virtual slides were generated using the Pannoramic 250 scanner from 3D Histech. For each animal, a score summarizing the main histological lesions of NASH was attributed according to the NASH Clinical Research Network (Kleiner 2005, Brunt 1999). Briefly, steatosis, lobular inflammation and hepatocyte ballooning were scored. The NAFLD Activity Score (NAS score) was established for each individual as the unweighted sum of the steatosis (0-3), lobular inflammation (0-3) and the ballooning (0-2) injury grading.
Alanine aminotransferase (ALT) and aspartate aminotransferase (AST) concentrations were measured in plasma using the Randox kit for Daytona automate (Randox cat #AL 3801 and AS 3804, respectively). Plasma cytokeratin 18-M30, a surrogate marker of apoptosis, was measured using the Mouse Cytokeratin 18-M30 ELISA Kit (CUSABIO cat #CSB-E14265m), according to the manufacturer's recommendations. […]
Quantitative PCR was then carried out using the CFX96 Touch™ Real-Time PCR Detection System (Biorad). […]
Expression levels were normalized using the expression of GAPDH gene as a housekeeping gene of reference in samples. […] Expression levels were determined using the standard curve equation for both the housekeeping gene and the target gene (taking into account the specific PCR efficiency of each target gene).
To achieve this aim, NASH was induced by feeding C57Bl/6J mice with a choline-deficient L-amino-acid-defined-diet supplemented with 2% cholesterol and 30% milk fat, and high fructose corn syrup in drinking water (CDFF diet). […] NASH development was evaluated by histology, liver function tests, and biochemical and molecular analyses.

[3] = tested on: TGFβ1-induced hHSC; assay: α-SMA ELISA in TGFβ1-activated human primary hepatic stellate cells (in vitro model of hepatic fibrogenesis); format: cell-based
Description: Serum-deprived HSC were preincubated for 1 hour with Elafibranor (A), Cenicriviroc (B), or Bezafibrate (PPAR pan α/γ/δ) before the activation with the profibrogenic cytokine TGFβ1 (1 ng/ml).
After 48 hours of incubation, the expression of α-SMA was measured by ELISA.
The obtained values were transformed into percentage inhibition over TGFβ1 control. Data are presented as mean (quadruplicates)±standard deviation (SD). Statistical analyses were performed by one-way ANOVA followed by Bonferroni post-hoc tests, using Sigma Plot 11.0 software. [*: p<0.05; **: p<0.01; ***: p<0.001 (comparison versus TGFβ1 1 ng/mL group)]. The curve fitting and the calculation of half maximal inhibitory concentration (IC50) were performed with XLFit software 5.3.1.3.
The human primary hepatic stellate cells (hHSC; Innoprot) were cultured in STeCM medium (ScienCell cat #5301) that was supplemented with 2% fetal bovine serum (FBS, ScienCell cat #0010), 1% penicillin/streptomycin (ScienCell cat #0503) and stellate cell growth supplement (SteCGS; ScienCell cat #5352). Cell-culture flasks were coated with Poly-L Lysine (Sigma cat #P4707) for a better adherence.
For these experiments, a checkerboard matrix was generated. […]
The level of α-SMA was measured using a Sandwich ELISA. […]

[4] = tested on: NASH with liver fibrosis; settings: cited from earlier work
[5] = CVC 150 mg orally once daily, one year

Row | SMILES | solubility ([1]; 99.5% ethanol) | solubility ([1]; acetonitrile, 1-octanol, tetrahydrofuran) | solubility ([1]; aqueous solution at pH 3) | solubility ([1]; aqueous solution from pH 1 to 2) | solubility ([1]; aqueous solution from pH 4 to 13 and in water) | solubility ([1]; ethyl acetate and diethylether) | solubility ([1]; glacial acetic acid, methanol, benzyl alcohol, dimethylsulfoxide, N,N-dimethylformamide) | solubility ([1]; pyridine and acetic anhydride) | NAS score (disease activity) ([2]; 8 weeks (FIG. 4A)) | plasma CK18 concentration ([2]; 8 weeks (FIG. 4B)) | plasma AST concentration ([2]; 8 weeks (FIG. 4C)) | hepatic expression of genes related to inflammation, tissue remodeling and fibrogenesis ([2]; 8 weeks, qPCR (FIG. 5)) | antifibrotic activity (α-SMA) ([3]; 5 μM alone (FIG. 2C)) | antifibrotic effect as single agent (α-SMA) ([3]; hHSC, TGFβ1 1 ng/ml, 48 h, all doses (FIG. 1B, 1C)) | fibrosis as compared to placebo [4, 5] | primary outcome (minimum 2-point improvement in NAS with at least 1-point reduction in lobular inflammation or hepatocellular ballooning) [4, 5] | efficacy on NASH-induced fibrosis ([4]; recent phase 2B study)
1 | CCCCOCCOc1ccc(-c2ccc3c(c2)C=C(C(=O)Nc2ccc([S@@+]([O-])Cc4cncn4CCC)cc2)CCCN3CC(C)C)cc1.CS(=O)(=O)O [CVC mesylate, (S)-8-[4-(2-Butoxyethoxy)phenyl]-1-isobutyl-N-[4-[[(1-propyl-1H-imidazol-5-yl)methyl]sulfinyl]phenyl]-1,2,3,4-tetrahydro-1-benzazocine-5-carboxamide monomethanesulfonoate] | sparingly soluble | slightly soluble | sparingly soluble | freely soluble | practically insoluble | practically insoluble | freely soluble | soluble | – | – | – | – | – | – | – | – | –
2 | CCCCOCCOc1ccc(-c2ccc3c(c2)/C=C(/C(=O)Nc2ccc([S@@+]([O-])Cc4cncn4CCC)cc2)CCCN3CC(C)C)cc1 [CVC, (S,E)-8-(4-(2-Butoxyethoxy)phenyl)-1-(2-methylpropyl)-N-(4-(((1-propyl-1H-imidazol-5-yl)methyl)sulfinyl)phenyl)-1,2,3,4-tetrahydrobenzo[b]azocine-5-carboxamide] | – | – | – | – | – | – | – | – | no effect | no effect | no effect | no effect | does not show any antifibrotic activity | did not show a significant effect | decrease of fibrosis in certain proportion of patients | not met | shown efficacy

Source: patent US11590108B2, “Pharmaceutical compositions for combination therapy” (Genfit, priority 2017, dated 2023)
